Experiments:
[1] = system: Class-lla HDAC; assay: Cell-based deacetylase assay in HT-29 cells, class-IIa selective substrate Boc-Lys-TFA; details: whole-cell assay, 100 μM Boc-Lys-TFA (class-IIa selective substrate), 3 h at 37° C.
Protocol: Cell-based deacetylase assay. […] HT-29 cells (obtained from ATCC) with the addition of either 100 μM Boc-Lys-TFA (class-IIa selective substrate) or 200 μM Boc-Lys-Ac (class-I/IIb selective substrate) were plated into 96 well plates at 200,000 cells/well in 45 uL cellular assay buffer (RPMI without phenol red, 0.1% Fetal Bovine Serum) and were incubated for 3 h at 37° C. The deacetylation achieved by the addition of 50 uL HDAC developer solution (2.5 mg/ml trypsin in DMEM without Fetal Bovine Serum and 10% tween 80) for a further 1 h to sensitize the substrate and to lyse the cells. Fluorescent counts were read with microplate reader at an excitation wavelength of 360 nm and detection of emitted light of 460 nm.

[2] = system: Class-I HDAC; assay: Cell-based deacetylase assay in HT-29 cells, class-I/IIb selective substrate Boc-Lys-Ac; details: whole-cell assay, 200 μM Boc-Lys-Ac (class-I/IIb selective substrate), 3 h at 37° C.
Protocol: Cell-based deacetylase assay. The cell-based assay was conducted similar to the previous work (Lobera M 2013; Luckhurst C A 2019) Briefly, compounds were diluted in 5 uL DMSO (11-point concentration curve, 5% final DMSO) and were added to 96 wells with positive (5 μM Trichostatin A (TSA)) and negative control (5 uL DMSO) wells. HT-29 cells (obtained from ATCC) with the addition of either 100 μM Boc-Lys-TFA (class-IIa selective substrate) or 200 μM Boc-Lys-Ac (class-I/IIb selective substrate) were plated into 96 well plates at 200,000 cells/well in 45 uL cellular assay buffer (RPMI without phenol red, 0.1% Fetal Bovine Serum) and were incubated for 3 h at 37° C. The deacetylation achieved by the addition of 50 uL HDAC developer solution (2.5 mg/ml trypsin in DMEM without Fetal Bovine Serum and 10% tween 80) for a further 1 h to sensitize the substrate and to lyse the cells. Fluorescent counts were read with microplate reader at an excitation wavelength of 360 nm and detection of emitted light of 460 nm.

[3] = Stability of the tracer in its injection formulation; type: physicochemical; details: ethanol:polysorbate 80:saline (10:10:80%), 37° C.
Protocol: Anesthetized Sprague Dawley rats (200-250 g, N=6) were placed in the Inveon uPET (Siemens, Knoxville, TN) in the supine position with the skull positioned in the center of the field of view. [^18F]-NT160 was formulated in ethanol:polysorbate 80:saline (10:10:80%) and it was stable in this formulation at 37° C. at least for 4 hours. [^18F]-NT160 (18.5-25.9 MBq/animal) was administered via the tail-vein injection in a total volume 0.5-1.0 ml. Dynamic PET images were obtained over 60 minutes followed by CT imaging (15 min scan). Images were reconstructed with attenuation correction using an ordered subset expectation maximization (OSEM2D) algorithm with 16 subsets and 4 iterations. […] The time-activity curve (TAC) was generated from the region of interest (ROI) by plotting the radioactivity/cc vs time. Levels of accumulation of the radiotracer in tissues were expressed as standard uptake values (SUV) that were calculated for the regions of interest (ROI) using the AMIDE software. The SUV is defined as the ratio of the tissue radioactivity concentration C (e.g. expressed as Bq/g tissue) at given time point post injection T, and the injected dose (e.g. in Bq, decay-corrected to the same time T), and normalized by the body weight in grams. […]

[4] = system: class-lla HDACs; assay: In vivo microPET imaging of healthy rats (biodistribution, self-blocking with cold TMP195); parameters: species or system Sprague Dawley rats; details: for biodistribution / uptake in brain regions: rat brain PET
Protocol: Sprague Dawley rats (200-250 g, N=3,) were anesthetized with 3% isoflurane in oxygen and maintained at 2% isoflurane in oxygen throughout the imaging studies. Anesthetized rat was placed in the uPET (Siemens, Knoxville, TN) with the skull positioned in the center of the field of view. The tracer (500-700 μCi/animal) was administered intravenously into each Rat (n=3 per group) in a total volume 0.5-1.0 ml solution. Dynamic PET images were obtained over 60 minutes. Images were reconstructed with attenuation correction using an ordered subset expectation maximization (OSEM2D) algorithm with 16 subsets and 4 iterations.
Dynamic PET images were analyzed with Inveon Research Workplace 4.0 (Siemens, Knoxville, TN) and AMIDE software using manual segmentation of regions of interest (ROI), were drawn over ROI on the decay-corrected coronal images. The radioactivity accumulation (tracer uptake) within the ROI were obtained as percentage of the injected dose (ID) per gram of tissue (% ID/g). The time-activity curve (TAC) was generated from the region of interest (ROI) by plotting the radioactivity/cc vs time.
Anesthetized Sprague Dawley rats (200-250 g, N=6) were placed in the Inveon uPET (Siemens, Knoxville, TN) in the supine position with the skull positioned in the center of the field of view. [^18F]-NT160 was formulated in ethanol:polysorbate 80:saline (10:10:80%) and it was stable in this formulation at 37° C. at least for 4 hours. [^18F]-NT160 (18.5-25.9 MBq/animal) was administered via the tail-vein injection in a total volume 0.5-1.0 ml. Dynamic PET images were obtained over 60 minutes followed by CT imaging (15 min scan). Images were reconstructed with attenuation correction using an ordered subset expectation maximization (OSEM2D) algorithm with 16 subsets and 4 iterations. PET image analysis was performed using the AMIDE software by using manual segmentation of regions of interest (ROI), including: whole brain, cortex, hippocampus, thalamus, cerebellum, and brain stem. Rat Brain Atlas was used for alignment and identification of specific anatomical markers of the brain. The time-activity curve (TAC) was generated from the region of interest (ROI) by plotting the radioactivity/cc vs time. Levels of accumulation of the radiotracer in tissues were expressed as standard uptake values (SUV) that were calculated for the regions of interest (ROI) using the AMIDE software. The SUV is defined as the ratio of the tissue radioactivity concentration C (e.g. expressed as Bq/g tissue) at given time point post injection T, and the injected dose (e.g. in Bq, decay-corrected to the same time T), and normalized by the body weight in grams. GraphPad Prism (Graph Pad Software La Jolla, CA) was used for image data analysis. [^18F]-NT2-160 was also prepared by the same or similar procedure.

[5] = Partition coefficient, octanol/PBS shake flask method; type: physicochemical; details: phosphate buffer pH 7.4
Protocol: The log P was determined by partitioning the tracer between octanol and phosphate buffer at pH 7.4 and measuring the concentration of the tracer in each layer. The radioactivity of each layer is counted using gamma-counter. The partition coefficient (P) is calculated as [radioactivity (cpm/ml) in 1-octanol)]/[(radioactivity (cpm/ml) in phosphate buffer pH 7.4].

[6] = rat, co-administered TMP195 2 mg/kg

SMILES	IC50 [1]	IC50 [2]	further results
CN(Cc1ccccc1)C(=O)C(C)(C)CNC(=O)c1cccc(-c2noc(C(F)(F)F)n2)c1 [NT3-118]	> 50 µM	> 50 µM	–
O=C(NC1CCN(Cc2ccc(I)cc2)C1)c1ccc(-c2noc(C(F)(F)F)n2)cc1 (stereo not shown) [NT3-39]	0.295 µM	> 50 µM	–
O=C(NC1CCN(Cc2ccccc2I)C1)c1ccc(-c2noc(C(F)(F)F)n2)cc1 (stereo not shown) [NT3-127B]	1 µM	> 50 µM	–
CCN1CC[C@@H](NC(=O)c2ccc(-c3noc(C(F)(F)Cl)n3)cc2)C1 [NT3-92]	> 20 µM	> 50 µM	–
O=C(NC1CCN(c2ccccc2)C1)c1ccc(-c2noc(C(F)(F)F)n2)cc1 (stereo not shown) [NT2-174]	> 20 µM	> 50 µM	–
C[C@H](CN(C)Cc1ccccc1)NC(=O)c1ccc(-c2noc(C(F)(F)[18F])n2)cc1 [[^18F]-NT160]	–	–	stable in formulation [3]: ≥ 4 h
O=C(NC1CCN(Cc2ccccc2)C1)c1ccc(-c2noc(C(F)(F)[18F])n2)cc1 (stereo not shown) [[^18F]-NT2-160]	–	–	biodistribution / uptake in brain regions [4]: heterogenous
CC(C)(CNC(=O)c1cccc(-c2noc(C(F)(F)[18F])n2)c1)c1coc(-c2ccccc2)n1 [^18F-NT57]	–	–	logD [5]: > 6; tracer uptake in the harderian gland ([4]; rat): neither specific nor unique; biodistribution / uptake in brain regions [4]: heterogeneous; uptake in the wrist ([4]; rat, baseline and blocking with TMP195): intense and blockable; uptake in the brown fat adipose tissues (BATs) ([4]; rat, cervical and interscapular BAT, 60 min): intense and increased uptake; brain uptake with cold dose of TMP195 vs baseline (self-blocking) [4, 6]: reduced; tracer uptake in BATs with cold dose of TMP195 (blocking) [4, 6]: reduced; accumulation in the liver ([4]; rat, dynamic PET over 60 min): accumulated heavily; clearance from most normal tissues (heart, brain, muscle) ([4]; rat, dynamic PET over 60 min): rapid clearance; peak uptake in the brain ([4]; rat, intravenous tracer, dynamic PET over 60 min): ~1 % ID/g; tracer uptake in the muscle ([4]; rat, not affected by blocking): low and nonspecific
C[C@@H](CN1CC[C@H](c2ccccc2)C1)NC(=O)c1ccc(-c2noc(C(F)(F)F)n2)cc1 [NT3-16D]	0.005 µM	> 25 µM	–
CC(CN(C)Cc1ccccc1)NC(=O)c1ccc(-c2noc(C(F)(F)F)n2)cc1 (stereo not shown) [NT2-191]	–	> 50 µM	–
O=C(NC1CCCN(Cc2ccccc2)C1)c1ccc(-c2noc(C(F)(F)F)n2)cc1 (stereo not shown) [NT2-190]	> 10 µM	> 50 µM	–
O=C(NC1CCN(CCc2ccccc2F)C1)c1ccc(-c2noc(C(F)(F)F)n2)cc1 (stereo not shown) [NT3-102C]	> 10 µM	> 50 µM	–
O=C(NC1CCN(CCF)C1)c1ccc(-c2noc(C(F)(F)F)n2)cc1 (stereo not shown) [NT3-123]	> 10 µM	> 50 µM	–
O=C(NC1CCN(CCc2ccccc2)C1)c1ccc(-c2noc(C(F)(F)F)n2)cc1 (stereo not shown) [NT3-106C]	> 10 µM	> 50 µM	–
O=C(NC1CCN(Cc2ccccc2F)C1)c1ccc(-c2noc(C(F)(F)F)n2)cc1 (stereo not shown) [NT3-132B]	0.3 µM	> 50 µM	–
C[C@H](NC(=O)c1ccc(-c2noc(C(F)(F)F)n2)cc1)C(=O)N1CC[C@H](c2ccccc2)C1 [NT3-52B]	> 1 µM	> 50 µM	–
CN(Cc1ccccc1)C(=O)CCNC(=O)c1cccc(-c2noc(C(F)(F)F)n2)c1 [NT-175]	> 50 µM	> 50 µM	–
O=C(NC1CCN(Cc2ccccc2)C1)c1ccc(-c2noc(C(F)(F)F)n2)cc1 (stereo not shown) [NT2-160]	–	> 20 µM	–

Further lines, with some results ahead:

IC50 [1]	IC50 [2]	SMILES	further results
0.905 ± 0.22 µM	> 15 µM	CN(Cc1ccccc1)C(=O)CCNC(=O)c1ccc(-c2noc(C(F)(F)F)n2)cc1 [NT-174]	–
0.032 µM	> 5 µM	C[C@H](CN(C)Cc1ccccc1)NC(=O)c1ccc(-c2noc(C(F)(F)F)n2)cc1F [NT3-76]	–
> 5 µM	> 15 µM	CC(C)(CNC(=O)c1ccc(-c2noc(C(F)(F)F)n2)cc1)c1coc(-c2ccccc2)n1 [NT-134]	–
0.233 ± 0.11 µM	> 15 µM	COC[C@@H](NC(=O)c1ccc(-c2noc(C(F)(F)F)n2)cc1)C(=O)NCc1ccc(F)cc1 [NT2-156]	–
0.179 µM	> 10 µM	O=C(NC1CCN(Cc2ccccc2F)C1)c1ccc(-c2noc(C(F)(F)F)n2)cc1F (stereo not shown) [NT3-77A]	–
0.173 µM	> 10 µM	O=C(NC1CCN(Cc2ccc(F)cc2)C1)c1ccc(-c2noc(C(F)(F)F)n2)cc1F (stereo not shown) [NT3-77C]	–
0.142 µM	> 20 µM	O=C(NC1CCN(Cc2ccc(F)cc2)C1)c1ccc(-c2noc(C(F)(F)F)n2)cc1 (stereo not shown) [NT3-40]	–
0.537 ± 0.15 µM	> 15 µM	COC[C@@H](NC(=O)c1ccc(-c2noc(C(F)(F)F)n2)cc1)C(=O)NCc1ccccc1 [NT-176]	–
0.137 µM	> 5 µM	CCN1CCC(NC(=O)c2ccc(-c3noc(C(F)(F)F)n3)cc2F)C1 (stereo not shown) [NT3-81]	–
0.933 ± 0.26 µM	> 15 µM	CN(Cc1ccccc1)C(=O)C(C)(C)CNC(=O)c1ccc(-c2noc(C(F)(F)F)n2)cc1 [NT3-119]	–
0.059 ± 0.016 µM	> 15 µM	C[C@H](CN(C)Cc1ccc(F)cc1)NC(=O)c1ccc(-c2noc(C(F)(F)F)n2)cc1 [NT3-11D]	–
1.71 ± 0.33 µM	> 15 µM	COC[C@@H](NC(=O)c1ccc(-c2noc(C(F)(F)F)n2)nc1)C(=O)NCc1ccccc1 [NT-192]	–
0.768 ± 0.19 µM	> 15 µM	CC(C)(NCc1ccccc1)C(=O)CNC(=O)c1ccc(-c2noc(C(F)(F)F)n2)cc1 [NT2-44]	–
0.091 µM	> 9 µM	CCN1CCC(NC(=O)c2ccc(-c3noc(C(F)(F)F)n3)cc2)C1 (stereo not shown) [NT3-83]	–
> 2 µM	> 2 µM	C[C@H](CN(C)Cc1ccccc1)NC(=O)c1ccc(-c2noc(C(F)(F)Cl)n2)cc1 [NT3-89B]	–
0.953 µM	> 15 µM	C[C@@H](NC(=O)c1ccc(-c2noc(C(F)(F)F)n2)cc1)C(=O)NCc1ccccc1 [NT2-67]	–
0.195 µM	> 10 µM	O=C(NC1CCN(Cc2cccc(F)c2)C1)c1ccc(-c2noc(C(F)(F)F)n2)cc1F (stereo not shown) [NT3-77B]	–
0.152 µM	> 10 µM	O=C(NC1CCN(Cc2ccccc2)C1)c1ccc(-c2noc(C(F)(F)F)n2)cc1F (stereo not shown) [NT3-77]	–
0.072 µM	> 3 µM	CN1CCC(NC(=O)c2ccc(-c3noc(C(F)(F)F)n3)cc2F)C1 (stereo not shown) [NT3-75]	–

From patent US20240327361A1, “RADIOLABELED COMPOSITIONS AND METHODS OF USE THEREOF” (The Research Foundation for the State University of New York, priority 2021, published 2024)
